A short description of this data set: Transcellular transport test using Caco2 cell. The following applies: human, Caco-2, apical-to-basolateral (A-to-B), pH=7.4, 10 µM compound. In kind it is in vitro ADME. As for the experimental part: Caco2 cells (purchased from ATCC) were cultured in DMEM medium (Thermo Fisher Scientific, Inc., 11965) containing 10% FBS (Thermo Fisher Scientific, Inc., 10082) and 1% penicillin/streptomycin/amphotericin B (Thermo Fisher Scientific, Inc., 15240). A transcellular transport test was carried out in accordance with MultiScreen Caco2 Drug Transport Assembly in a 96-well system (Application Note AN1727EN, MultiScreen Caco-2 Assay System, Merck) by partially modifying it. The Caco2 cells were inoculated at a cell density of 4×10^4 cells/well onto a micropore polycarbonate insert of a 96-well plate (Merck, Millcell-96 culture insert plate 0.4 μm pore size, well membrane area=0.11 cm^2, PSHT004S5) and cultured for 20 to 22 days, and the resulting monolayer was used in the transcellular transport test. The medium of the inoculated cells was replaced with a fresh one every 3 to 4 days.
Apical-to-basolateral (A-to-B) transport in the Caco2 cell monolayer membrane was performed by using HBSS (Thermo Fisher Scientific, Inc., 14025) medium (pH=7.4) containing 20 mM HEPES (Thermo Fisher Scientific, Inc., 15630), and adding HEPES-containing HBSS medium containing 10 µM compound (a 10 mM solution of the compound in DMSO was added at a 1000-fold dilution; final DMSO concentration: 0.1%) at 75 μL/well to the apical side and HEPES-containing HBSS medium supplemented with no compound at 250 μL/well to the basolateral side, followed by culture at 37° C. for 90 minutes. After culture, a 100 μL aliquot was collected from the basolateral side, and the concentration of a permeated compound was measured by LC-MS/MS under measurement conditions mentioned later. Papp (apparent permeability; cm/sec) was calculated from the determined concentration. Papp was determined according to the expression given below by calculating the slope (dA/dt; nmol/sec) of a straight line drawn between two points 0 minutes and zero amount of the compound in a graph plotted with an assay time (90 min) on the abscissa against the amount of the compound in the solution on the permeated side on the ordinate. As for an assay concentration, the concentration in the compound in the HEPES-containing HBSS medium containing the added compound was measured by UV-HPLC under measurement conditions mentioned later.
C0: assay concentration, S: plate membrane area=0.11 cm^2
• LC: LC20 or LC30 HPLC system manufactured by Shimadzu Corp. • Column: Phenomenex Kinetex C18 (50 mm×2.1 mm, 2.6 μm) • Column temperature: 40° C. • Flow rate: 0.3 mL/min • Mobile phase A: 0.1% aqueous formic acid solution • Mobile phase B: 0.1% formic acid, 50% acetonitrile/methanol mixed solution • Gradient: 0-2 min; A/B=90/10 to 10/90, 2-3 min; A/B=10/90, 3-3.01 min; A/B=10/90 to 90/10 • MS: Q-Trap3200 manufactured by AB Sciex Pte. Ltd. • Ionization: ESI • Mode: Positive
• LC: LC20 or LC30 HPLC system manufactured by Shimadzu Corp. • Column: Phenomenex Kinetex C18 (100 mm×2.1 mm, 2.6 μm) • Column temperature: 40° C. • Flow rate: 0.25 mL/min • Mobile phase A: 0.1% aqueous formic acid solution • Mobile phase B: 0.1% formic acid, 50% acetonitrile/methanol mixed solution • Gradient: 0-3 min; A/B=90/10, 3-11 min; A/B=90/10 to 5/95, 11-15 min; A/B=5/95, 15-15.1 min; A/B=5/95 to 90/10 • UV detector: photodiode array detector
A: Papp>1×10^−6 (cm/sec), B: 1×10^−6 (cm/sec)≥Papp>5×10^−7 (cm/sec), C: 5×10^−7 (cm/sec)≥Papp>1×10^−7 (cm/sec), or D: Papp≤1×10^−7 (cm/sec).
For orientation: Caco-2 monolayers are a common model of the intestinal barrier.
The term Papp A→B denotes the apparent permeability from the apical to the basolateral side of a cell layer. Low values mean poor permeation, high ones ready permeation. `O=C(O)C[C@H](NC(=O)CNC(=O)c1cc(NC2=NCC(F)CN2)c2cn[nH]c2c1)c1ccc(OC(F)F)cc1` (stereo partly drawn) [46-(b), (3S)-3-(4-(difluoromethoxy)phenyl)-3-(2-(4-((5-fluoro-1,4,5,6-tetrahydropyrimidin-2-yl)amino)-1H-indazole-6-carboxamido)acetamido)propanoic acid] gave a Papp A→B at 90 min, 10 µM of over 1 ×10⁻⁶ cm/s.
The compound `O=C(O)C[C@H](NC(=O)CNC(=O)c1cc(NC2=NCC(F)CN2)c2cn[nH]c2c1)c1cccc(C2CC2)c1` (stereo partly drawn) [39-(b), (3S)-3-(3-cyclopropylphenyl)-3-(2-(4-((5-fluoro-1,4,5,6-tetrahydropyrimidin-2-yl)amino)-1H-indazole-6-carboxamido)acetamido)propanoic acid] yielded a Papp A→B at 90 min, 10 µM of over 1 ×10⁻⁶ cm/s.
In the case of `O=C(O)C[C@H](NC(=O)CNC(=O)c1cc(NC2=NCC(F)CN2)cc2[nH]ncc12)c1cccc(C(F)(F)F)c1` (stereo partly drawn) [56-(b), (3S)-3-(2-(6-((5-fluoro-1,4,5,6-tetrahydropyrimidin-2-yl)amino)-1H-indazole-4-carboxamido)acetamido)-3-(3-(trifluoromethyl)phenyl)propanoic acid], the Papp A→B at 90 min, 10 µM is 0.1 to 0.5 ×10⁻⁶ cm/s.
Turning to `O=C(O)C[C@H](NC(=O)CNC(=O)c1cc(NC2=NCC(F)CN2)c2cn[nH]c2c1)c1ccc(F)c(OC(F)F)c1` (stereo partly drawn) [27-(b), (3S)-3-(3-(difluoromethoxy)-4-fluorophenyl)-3-(2-(4-((5-fluoro-1,4,5,6-tetrahydropyrimidin-2-yl)amino)-1H-indazole-6-carboxamido)acetamido)propanoic acid], the Papp A→B at 90 min, 10 µM is over 1 ×10⁻⁶ cm/s.
To `O=C(O)C[C@H](NC(=O)CNC(=O)c1cc(NC2=NCC(F)CN2)c2cn[nH]c2c1)c1cc(F)cc(C(F)(F)F)c1` (stereo partly drawn) [6-(b), (3S)-3-(2-(4-((5-fluoro-1,4,5,6-tetrahydropyrimidin-2-yl)amino)-1H-indazole-6-carboxamido)acetamido)-3-(3-fluoro-5-(trifluoromethyl)phenyl)propanoic acid] belongs over 1 ×10⁻⁶ cm/s; to `O=C(O)C[C@H](NC(=O)CNC(=O)c1cc(NC2=NCC(F)CN2)c2cn[nH]c2c1)c1ccc(C(F)(F)F)cc1` (stereo partly drawn) [47-(b), (3S)-3-(2-(4-((5-fluoro-1,4,5,6-tetrahydropyrimidin-2-yl)amino)-1H-indazole-6-carboxamido)acetamido)-3-(4-(trifluoromethyl)phenyl)propanoic acid], over 1 ×10⁻⁶ cm/s.
`O=C(O)C[C@H](NC(=O)CNC(=O)c1cc(NC2=NCC(F)CN2)c2cn[nH]c2c1)c1cc(OC(F)F)ccc1F` (stereo partly drawn) [28-(b), (3S)-3-(5-(difluoromethoxy)-2-fluorophenyl)-3-(2-(4-((5-fluoro-1,4,5,6-tetrahydropyrimidin-2-yl)amino)-1H-indazole-6-carboxamido)acetamido)propanoic acid] gave a Papp A→B at 90 min, 10 µM of over 1 ×10⁻⁶ cm/s.
In turn, `O=C(O)C[C@H](NC(=O)CNC(=O)c1cc(NC2=NCC(F)CN2)c2cn[nH]c2c1)c1cccc(C(F)(F)F)c1F` (stereo partly drawn) [9-(b), (3S)-3-(2-(4-((5-fluoro-1,4,5,6-tetrahydropyrimidin-2-yl)amino)-1H-indazole-6-carboxamido)acetamido)-3-(2-fluoro-3-(trifluoromethyl)phenyl)propanoic acid] returned a Papp A→B at 90 min, 10 µM of over 1 ×10⁻⁶ cm/s.
Regarding `O=C(O)C[C@H](NC(=O)CNC(=O)c1cc(NC2=NCC(F)CN2)cc2[nH]ncc12)c1ccc(F)c(C(F)(F)F)c1` (stereo partly drawn) [55-(b), (3S)-3-(2-(6-((5-fluoro-1,4,5,6-tetrahydropyrimidin-2-yl)amino)-1H-indazole-4-carboxamido)acetamido)-3-(4-fluoro-3-(trifluoromethyl)phenyl)propanoic acid], the Papp A→B at 90 min, 10 µM lay within 0.1 to 0.5 ×10⁻⁶ cm/s.
With `O=C(O)C[C@H](NC(=O)CNC(=O)c1cc(NC2=NCC(F)CN2)c2cn[nH]c2c1)c1cccc(OC2CC2)c1` (stereo partly drawn) [40-(b), (3S)-3-(3-cyclopropoxyphenyl)-3-(2-(4-((5-fluoro-1,4,5,6-tetrahydropyrimidin-2-yl)amino)-1H-indazole-6-carboxamido)acetamido)propanoic acid], the Papp A→B at 90 min, 10 µM was over 1 ×10⁻⁶ cm/s.
